# Assay results as given in US9249131B2, “Modulators of ATP-binding cassette transporters” (Vertex Pharmaceuticals Incorporated, priority 2003, dated 2016).
# Biological target: T1, ΔF508-CFTR (Homo sapiens, UniProt P13569, DEL508-508)
# T1 construct: expressed in transfected cells; host or cells: NIH3T3 mouse fibroblasts stably expressing ΔF508-CFTR for the optical, whole-cell and single-channel assays; Fisher rat epithelial (FRT) cells for Ussing chamber follow-up
# Assay: Assays for ΔF508-CFTR correction and potentiator properties (membrane potential optical and electrophysiological methods)
# Format: cell-based
# Settings: CFTR modulation; for % Activity: % Efficacy; for EC50: tested using the above methods
# Excerpt: Assays for Detecting and Measuring ΔF508-CFTR Correction and Potentiator Properties of Compounds
# A) Membrane Potential Optical Methods for Assaying ΔF508-CFTR Modulation Properties of Compounds
# The optical membrane potential assay utilized voltage-sensitive FRET sensors described by Gonzalez and Tsien (See, Gonzales, J. E. and R. Y. Tsien (1995) “Voltage sensing by fluorescence resonance energy transfer in single cells” Biophys J 69 (4): 1272-80, and Gonzalez, J. E. and R. Y. Tsien (1997) “Improved indicators of cell membrane potential that use fluorescence resonance energy transfer” Chem Biol 4 (4): 269-77) in combination with instrumentation for measuring fluorescence changes such as the Voltage/Ion Probe Reader (VIPR) (See, Gonzalez, J. E., K. Oades, et al. (1999) “Cell-based assays and instrumentation for screening ion-channel targets” Drug Discov Today 4 (9): 431-439).
# These voltage sensitive assays are based on the change in fluorescence resonant energy transfer (FRET) between the membrane-soluble, voltage-sensitive dye, DiSBAC2 (3), and a fluorescent phospholipid, CC2-DMPE, which is attached to the outer leaflet of the plasma membrane and acts as a FRET donor. Changes in membrane potential (Vm) cause the negatively charged DiSBAC2(3) to redistribute across the plasma membrane and the amount of energy transfer from CC2-DMPE changes accordingly. The changes in fluorescence emission were monitored using VIPR™ II, which is an integrated liquid handler and fluorescent detector designed to conduct cell-based screens in 96- or 384-well microtiter plates.
# To identify small molecules that correct the trafficking defect associated with ΔF508-CFTR; a single-addition HTS assay format was developed. The cells were incubated in serum-free medium for 16 hrs at 37° C. in the presence or absence (negative control) of test compound. As a positive control, cells plated in 384-well plates were incubated for 16 hrs at 27° C. to “temperature-correct” ΔF508-CFTR. The cells were subsequently rinsed 3× with Krebs Ringers solution and loaded with the voltage-sensitive dyes. To activate ΔF508-CFTR, […] and the CFTR potentiator, genistein ([…]), were added along with Cl^−-free medium to each well. The addition of Cl^−-free medium promoted Cl^− efflux in response to ΔF508-CFTR activation and the resulting membrane depolarization was optically monitored using the FRET-based voltage-sensor dyes.
# To identify potentiators of ΔF508-CFTR, a double-addition HTS assay format was developed. During the first addition, a Cl^−-free medium with or without test compound was added to each well. After 22 sec, a second addition of Cl^−-free medium containing 2-10 µM forskolin was added to activate ΔF508-CFTR. The extracellular Cl^− concentration following both additions was 28 mM, which promoted Cl^− efflux in response to ΔF508-CFTR activation and the resulting membrane depolarization was optically monitored using the FRET-based voltage-sensor dyes.
# • Bath Solution #1: (in mM) NaCl 160, KCl 4.5, CaCl2 2, MgCl2 1, HEPES 10, pH 7.4 with NaOH. • Chloride-free bath solution: Chloride salts in Bath Solution #1 are substituted with gluconate salts. • CC2-DMPE: Prepared as a 10 mM stock solution in DMSO and stored at −20° C. • DiSBAC2(3): Prepared as a 10 mM stock in DMSO and stored at −20° C. Cell Culture
# NIH3T3 mouse fibroblasts stably expressing ΔF508-CFTR are used for optical measurements of membrane potential. The cells are maintained at 37° C. in 5% CO2 and 90% humidity in Dulbecco's modified Eagle's medium supplemented with 2 mM glutamine, 10% fetal bovine serum, 1×NEAA, β-ME, 1×pen/strep, and 25 mM HEPES in 175 cm^2 culture flasks. For all optical assays, the cells were seeded at 30,000/well in 384-well matrigel-coated plates and cultured for 2 hrs at 37° C. before culturing at 27° C. for 24 hrs. for the potentiator assay. For the correction assays, the cells are cultured at 27° C. or 37° C. with and without compounds for 16-24 hours.
# T1 sequence (P13569 with tags, fused parts or gaps DEL508-508): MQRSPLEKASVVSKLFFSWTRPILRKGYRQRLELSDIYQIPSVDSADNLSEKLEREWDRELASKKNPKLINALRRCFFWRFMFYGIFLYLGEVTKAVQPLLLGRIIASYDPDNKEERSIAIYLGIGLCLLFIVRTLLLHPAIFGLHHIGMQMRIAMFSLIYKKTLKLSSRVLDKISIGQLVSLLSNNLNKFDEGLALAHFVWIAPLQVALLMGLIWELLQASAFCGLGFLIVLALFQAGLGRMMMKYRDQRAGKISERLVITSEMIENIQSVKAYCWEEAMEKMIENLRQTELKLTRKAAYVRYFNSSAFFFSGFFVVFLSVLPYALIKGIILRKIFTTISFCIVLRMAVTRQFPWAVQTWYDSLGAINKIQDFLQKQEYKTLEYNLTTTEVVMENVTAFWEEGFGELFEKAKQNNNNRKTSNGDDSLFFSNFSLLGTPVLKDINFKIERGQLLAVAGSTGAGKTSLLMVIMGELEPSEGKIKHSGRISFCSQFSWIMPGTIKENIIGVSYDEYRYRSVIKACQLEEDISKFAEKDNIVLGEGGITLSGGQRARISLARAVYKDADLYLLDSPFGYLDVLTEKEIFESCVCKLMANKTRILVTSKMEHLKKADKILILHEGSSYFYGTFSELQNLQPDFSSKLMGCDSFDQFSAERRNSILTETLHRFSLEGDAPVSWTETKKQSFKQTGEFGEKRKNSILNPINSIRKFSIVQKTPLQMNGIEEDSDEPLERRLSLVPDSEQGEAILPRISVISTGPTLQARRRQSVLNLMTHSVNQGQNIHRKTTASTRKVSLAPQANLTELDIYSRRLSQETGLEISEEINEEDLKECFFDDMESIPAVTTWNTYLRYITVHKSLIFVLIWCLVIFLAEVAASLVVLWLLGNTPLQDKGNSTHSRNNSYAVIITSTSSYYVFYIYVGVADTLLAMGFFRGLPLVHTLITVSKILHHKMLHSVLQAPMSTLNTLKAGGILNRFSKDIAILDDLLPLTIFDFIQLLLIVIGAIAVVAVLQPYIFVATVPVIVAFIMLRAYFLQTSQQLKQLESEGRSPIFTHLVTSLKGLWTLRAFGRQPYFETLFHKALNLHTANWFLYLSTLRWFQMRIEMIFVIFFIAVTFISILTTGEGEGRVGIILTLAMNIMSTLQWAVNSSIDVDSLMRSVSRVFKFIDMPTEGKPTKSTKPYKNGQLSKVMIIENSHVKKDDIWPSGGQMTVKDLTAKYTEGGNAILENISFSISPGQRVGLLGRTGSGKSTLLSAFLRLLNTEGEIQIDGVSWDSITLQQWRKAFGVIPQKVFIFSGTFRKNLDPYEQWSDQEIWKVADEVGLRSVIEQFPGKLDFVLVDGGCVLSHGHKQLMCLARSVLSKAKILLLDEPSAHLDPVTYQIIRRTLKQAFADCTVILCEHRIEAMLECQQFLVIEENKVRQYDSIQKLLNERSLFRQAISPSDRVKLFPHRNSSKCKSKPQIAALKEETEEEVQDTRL
SMILES,% Activity,EC50 [µM]
O=C(O)CSCC(=O)Nc1nc(-c2ccccc2)c(-c2ccccc2)s1 [compound 20],++ (“++” means between 25% to 100%),10 to 25
CC(C)(C)C(=O)Nc1nc(-c2ccccc2)cs1 [compound 87],++ (“++” means between 25% to 100%),10 to 25
O=C(Nc1nc(-c2ccc(N3CCCC3)cc2)cs1)c1ccccc1 [compound 163],++ (“++” means between 25% to 100%),10 to 25
N#Cc1ccc(-c2csc(NC(=O)c3ccccc3)n2)cc1 [compound 161],++ (“++” means between 25% to 100%),25 to 60
O=C(Nc1ncc(Cc2cccc(Cl)c2)o1)C1Cc2ccccc21 (centres unmarked) [compound 152],++ (“++” means between 25% to 100%),10 to 25
COc1ccccc1-c1csc(NC(=O)c2cccc(C)c2)n1 [compound 5],++ (“++” means between 25% to 100%),10 to 25
COc1ccc(-c2csc(NC(=O)c3ccccc3)n2)c(OC)c1 [compound 162],++ (“++” means between 25% to 100%),25 to 60
COc1cccc(-c2csc(NC(=O)c3cccc(C)c3)n2)c1 [compound 231],+++ (“+++” means >100%),10 to 25
O=C(Nc1ncc(Cc2cccc(Cl)c2)o1)c1ccccc1 [compound 158],++ (“++” means between 25% to 100%),–
CCC(C(=O)Nc1nc(-c2ccncc2)cs1)c1ccccc1 (centres unmarked) [compound 58],++ (“++” means between 25% to 100%),10 to 25
O=C(Nc1nc(-c2ccccc2)cs1)C1CCCCC1 [compound 55],++ (“++” means between 25% to 100%),10 to 25
COc1ccccc1Cc1cnc(NC(=O)C(c2ccccc2)C2CCCCC2)o1 (centres unmarked) [compound 179],++ (“++” means between 25% to 100%),10 to 25
O=C(Nc1ncc(Cc2ccccc2Cl)o1)C(c1ccccc1)C1CCCC1 (centres unmarked) [compound 192],++ (“++” means between 25% to 100%),10 to 25
Cc1cccc(C(=O)Nc2nc(-c3ccccc3Cl)cs2)c1 [compound 228],++ (“++” means between 25% to 100%),10 to 25
O=C(Nc1ncc(Cc2ccccc2Cl)s1)C(c1ccccc1)N1CCCC1 (centres unmarked) [compound 241],++ (“++” means between 25% to 100%),< 10
COc1ccccc1Cc1cnc(NC(=O)C(c2ccccc2)c2ccccc2)o1 [compound 180],++ (“++” means between 25% to 100%),10 to 25
CCC(C(=O)Nc1ncc(Cc2ccccc2Cl)s1)N(C)C (centres unmarked) [compound 222],++ (“++” means between 25% to 100%),25 to 60
O=C(Nc1ncc(Cc2ccccc2Cl)s1)c1ccccc1Cl [compound 19],++ (“++” means between 25% to 100%),10 to 25
COc1cccc(-c2csc(NC(=O)c3ccccc3)n2)c1 [compound 81],++ (“++” means between 25% to 100%),10 to 25
O=C(Nc1nc(-c2cccs2)cs1)c1cccc(Br)c1 [compound 9],++ (“++” means between 25% to 100%),< 10
COc1cccc(-c2csc(NC(=O)c3ccc(C)cc3)n2)c1 [compound 83],+++ (“+++” means >100%),10 to 25
COC(=O)CC(C(=O)Nc1ncc(Cc2ccccc2Cl)s1)c1ccccc1 (centres unmarked) [compound 269],++ (“++” means between 25% to 100%),< 10
CCCC(=O)Nc1ncc(Cc2ccccc2Cl)s1 [compound 210],++ (“++” means between 25% to 100%),10 to 25

# Continued, values first:
% Activity,EC50 [µM],SMILES
++ (“++” means between 25% to 100%),< 10,CC(C)(C)C(=O)Nc1nc(-c2ccccc2)c(-c2ccccc2)s1 [compound 112]
++ (“++” means between 25% to 100%),< 10,O=C(Nc1ncc(Cc2ccccc2Cl)s1)C(c1ccccc1)N1CCC(O)CC1 (centres unmarked) [compound 248]
++ (“++” means between 25% to 100%),< 10,O=C(Nc1ncc(Cc2ccccc2Cl)s1)C(c1ccccc1)N1CCCC(CO)C1 (centres unmarked) [compound 244]
+++ (“+++” means >100%),< 10,O=C(Nc1nc(-c2ccc(Cl)cc2)c(-c2ccccc2)s1)c1ccccc1 [compound 165]
++ (“++” means between 25% to 100%),< 10,O=C(Nc1ncc(Cc2ccccc2Cl)s1)C1CCCC1 [compound 209]
+++ (“+++” means >100%),< 10,Cc1ccc(-c2csc(NC(=O)c3ccccc3)n2)cc1 [compound 48]
++ (“++” means between 25% to 100%),< 10,O=C(Nc1nc(-c2ccc(Br)cc2)cs1)c1cccc(Cl)c1 [compound 43]
++ (“++” means between 25% to 100%),< 10,CCC(C(=O)Nc1ncc(Cc2cc(F)ccc2OC)s1)c1ccccc1 (centres unmarked) [compound 285]
++ (“++” means between 25% to 100%),< 10,CCCC(=O)Nc1nc(-c2ccccc2)c(-c2ccccc2)s1 [compound 108]
++ (“++” means between 25% to 100%),< 10,CC(C)C(C(=O)Nc1ncc(Cc2ccccc2C#N)s1)c1ccccc1 (centres unmarked) [compound 261]
+++ (“+++” means >100%),< 10,CCC(C)C(C(=O)Nc1ncc(Cc2ccccc2Cl)s1)c1ccccc1 (centres unmarked) [compound 99]
++ (“++” means between 25% to 100%),< 10,O=C(Nc1ncc(Cc2ccccc2Cl)s1)C(c1ccccc1)n1cccn1 (centres unmarked) [compound 235]
++ (“++” means between 25% to 100%),< 10,CC(C(=O)Nc1ncc(Cc2cccc(Cl)c2)o1)c1ccccc1 (centres unmarked) [compound 153]
++ (“++” means between 25% to 100%),< 10,O=C(Nc1ncc(Cc2cccc(Cl)c2)s1)C(c1ccc(Cl)cc1)c1ccc(Cl)cc1 [compound 125]
++ (“++” means between 25% to 100%),< 10,COc1ccc(S(=O)(=O)N2CCN(C(C)C(=O)Nc3nc(-c4ccccc4)c(-c4ccccc4)s3)CC2)cc1 (centres unmarked) [compound 196]
++ (“++” means between 25% to 100%),< 10,CCC(C)C(C(=O)Nc1nc(-c2ccccc2)cs1)c1ccccc1 (centres unmarked) [compound 170]
++ (“++” means between 25% to 100%),< 10,N#Cc1ccccc1Cc1cnc(NC(=O)C(c2ccccc2)C2CCCC2)s1 (centres unmarked) [compound 260]
+++ (“+++” means >100%),< 10,O=C(Nc1ncc(Cc2ccccc2Cl)s1)C(c1ccccc1)c1ccccc1 [compound 37]
++ (“++” means between 25% to 100%),< 10,O=C(Nc1nc(-c2ccccc2)cs1)C12CC3CC(CC(C3)C1)C2 [compound 17]
++ (“++” means between 25% to 100%),< 10,O=C(Nc1ncc(Cc2cccc(Cl)c2)s1)C(c1ccccc1)c1ccccc1 [compound 124]
++ (“++” means between 25% to 100%),< 10,COc1ccccc1Cc1cnc(NC(=O)C(c2ccc(Cl)cc2)c2ccc(Cl)cc2)s1 [compound 134]
+++ (“+++” means >100%),< 10,O=C(Cc1ccccc1)Nc1nc(-c2ccccc2)c(-c2ccccc2)s1 [compound 107]
